One assay concerns CA1 cells. Put plainly: Plateau potentials evoked by glutamate photolysis on CA1 cell dendrites in hippocampal slice cultures. In kind it is cell-based. The settings on record: compared with control CA1 cells. From the text:
It may be expected based on previous studies in the laboratory of the present inventor that partial denervation and removal of the majority of the excitatory input to area CA1 would result in a quiescent population of cells. In fact, local stimulation within area CA1 triggers prolonged, abnormally oscillatory synaptic responses in lesioned cultures that are never seen in normally innervated tissue (FIG. 1, top row), but only with a delay of 7 or more days after the injury (Wei et al., 2003). The reason is […] that denervation increases glutamate receptor expression in CA1 cells, akin to the well known phenomenon of denervation suprasensitivity in muscle. To confirm, the laboratory of the present inventor used photolysis of caged glutamate to compare the responses of CA1 cell dendrites in lesioned and unlesioned cultures.
In control cultures, distal, terminal dendritic branches of CA1 cells respond to weak photolysis of glutamate with passive subthreshold depolarizations. Stronger glutamate applications, however, trigger all-or-none Ca^2+-sensitive responses that are called plateau potentials (Wei et al., 2001). […] Plateau potentials, in contrast, are accompanied by Ca^2+ signals that can be seen throughout the stimulated dendrite within milliseconds, indicative of their rapid electrical propagation along the entire stimulated branch.

The subject of assay [1] is animals with lesioned spinothalamic tracts. Briefly: von Frey filament test for allodynia after spinothalamic tract transection. To be noted: 500 mg/kg intraperitoneally; FIG. 4B. In kind it is in vivo, rat. Here is the method: (§1) Spinothalamic tract transection. The spinothalamic tract is transected bilaterally at the level of the thoracic/lumbar border, thereby severing the ascending pathways conveying somatosensory, thermal and nociceptive information to the cortex via the thalamus. Male, adult Sprague-Dawley rats (ca. 200 gm) are anesthetized with pentobarbital and a T8 laminectomy is performed. The dura is opened with the tip of a 21 g. syringe needle to expose the spinal cord. The spinal cord is then lifted and rotated using a fine, sterile glass rod, and the ventral lateral pain pathways are severed electrolytically using a 1 MΩ sharpened tungsten needle and a 45 V pulse for 1 min. The lesion is packed with a small piece of sterile gelfoam. The overlying muscles and skin are closed and sutured, and the animal is allowed to recover on a 37° C. heating pad. Sham-operated controls undergo a laminectomy without dural penetration or spinal injury. This spinal transection procedure is a useful model of central pain syndrome where increased pain sensitivity and allodynia were observed. At various times after the lesion, standard behavioral tests were completed to assay the threshold for a stimulus to be perceived as painful, and allodynia was performed on awake, behaving animals. […] The paw withdrawal latency is automatically recorded when the rat withdraws its paw from the stimulus. […]

Assay [2] shares this test system. Briefly: Paw withdrawal latency test for hyperalgesia after spinothalamic tract transection. It is filed as in vivo, rat. To be noted: 500 mg/kg intraperitoneally; FIG. 4A. Here is the method:
as §1

For the compound `O=C(O)CN(CC(=O)O)c1ccccc1OCCOc1ccccc1N(CC(=O)O)CC(=O)O` [BAPTA], in the assay with CA1 cells, the “prolongation of plateau potentials in denervated CA1 cells” value is “occluded”.
For the compound `CC[N+](CC)(CC)CC` [TEA], the “prolongation of plateau potentials in denervated CA1 cells” value with CA1 cells is given as “occluded”.
As to `CCC1(C)CC(=O)NC1=O` (stereo not shown) [ethosuximide, 2-methyl-2-ethyl succinimide], the “allodynia (von Frey's test)” value in assay [1] is “reduced transiently”. Further, the “hyperalgesia (paw withdrawal latency)” value in assay [2] is given as “reduced transiently”.

For the origin of these results see patent US20090143450A1, “METHOD FOR TREATING CENTRAL PAIN SYNDROM OR FOR INDUCING CENTRALLY GENERATED PAIN IN AN ANIMAL MODEL” (UNIVERSITY OF MARYLAND, BALTIMORE, priority 2005, published 2009).
